One compound from patent US7683055B2, “Lanthionine-related compounds for the treatment of inflammatory diseases” (Oklahoma Medical Research Foundation, priority 2006, dated 2010) can be followed below.

The subject of assay [1] is EOC-20 microglia. Briefly: TNFα-stimulated nitrite production in EOC-20 microglia (Griess assay). It is filed as cell-based, mouse. How it is done:
Mouse EOC-20 microglia (American Tissue Type Collection, Gaithersville Md. USA) (Hensley et al., 2003; Walker et al., 1995) were grown in DMEM containing 20% L929 fibroblast-supplemented medium. Nitrite production by cytokine stimulated microglia was measured in cell culture medium using the Griess diazotization reaction as previously reported (Hensley et al., 2003; West et al., 2004).
The efficacy of (R)-LKE1 and (R)-LK as inhibitors of microglial cell activation in response to pro-inflammatory cytokines is shown in FIGS. 1A & 1B. EOC-20 murine microglial cells were pretreated 30 minutes with test compounds (e.g. (R)-LK or (R)-LKE1) dissolved in DMSO and diluted 1:200 into cell culture medium; or with DMSO vehicle only. Cells were then challenged with cytokine and allowed to incubate undisturbed in the cell culture incubator for 24 h prior to Griess assay. The lanthionine ketimine ester in this case is the structure shown above as (R)-LKE1. After drug treatment cells were then stimulated with 40 ng/mL recombinant murine tumor necrosis factor alpha (TNF α) plus 50U/mL interferon gamma (IFNγ). Nitrite (NO2^−) was measured in the cell culture medium 24 hours later, as an index of nitric oxide production. Cell viability was then assayed in the same cultures using a commercially available tetrazolium reduction assay (Promega OneStep™; Promega, Gaithersburg Md.). Cell culture methods were those published by the inventor (Hensley et al., 2003; West et al., 2004).
In a EOC-20 microglial assay the cells were stimulated with TNFα in the presence or absence of 100 microM (R)- or (S)-LK, and nitrite was measured 24 h later, the net suppression of nitrite was 13% by (S)-LK and 15% by (R)-LK.
The reduced lanthionine ketimine (i.e., TMDCA) was also tested against TNFα-stimulated nitrite production in the EOC-20 screen.

Assay [2] deals with Htt+ astroglia. Briefly: LPS-stimulated NO2- production in Htt+ astroglia. As to conditions: LPS serotype 0127:B8. The format is cell-based, mouse. How it is done:
(§1) Primary astrocytes were cultured from neonatal R6/2 transgenic mouse pups (“Htt+”) which are the standard murine model for Huntington's disease (animals commercially obtained from Jackson Labs) or nontransgenic littermates. For RAW cell studies, RAW264.7 macrophages were obtained commercially from American Type Culture Collection. RAW 264.7 macrophages were grown in DMEM plus 10% FBS and 1% Pen/Strep. Cells were maintained in culture according to published methods. Cells were treated with +/−[…] bacterial lipopolysaccharide serotype 0127:B8 (Sigma Chemical)+/−various concentrations of (R)-LKE1 for 24-48 h. (R)-LKE1 was added 30 minutes prior to LPS challenge. Nitrite was measured in the cell culture medium using the Griess diazotization assay. Cells were lysed and Western blots performed for protein expression or in other experiments for ribonuclease protection assays.

For assay [3], the system named is NSC-34 cells. Description: NSC-34 viability in cytokine-conditioned EOC-20 microglial medium (tetrazolium reduction). It is filed as cell-based, mouse. How it is done: In the second cytotoxicity paradigm, the inventor has also shown that the compounds and methods of this invention diminish the toxicity of microglia-conditioned medium toward NSC-34 cells. NSC-34 cells were treated with conditioned medium taken from EOC-20 cells that had been stimulated for 24 h with 50 U/mL IFNγ plus […] TNFα. This cytokine-conditioned EOC-20 medium is toxic to NSC-34 cells, whereas the same cytokine mixture added directly to NSC-34 cells is not toxic (data not shown). Medium from unstimulated EOC-20 cells is likewise nontoxic (data not shown). The toxic factor in the cytokine-stimulated EOC-20 cell conditioned medium was not identified. […] The concentration of (R)-LKE1 necessary to achieve half-maximal protective efficacy in this case was less than 1 μM (FIG. 3).
(R)-LKE1 protects NSC-34 motoneuron hybridoma cells from microglial-derived neurotoxic products (FIG. 3). EOC-20 microglia were stimulated with 50 U/mL IFNγ plus 20ng/mL TNFα for 24 hours, and cytokine-conditioned medium (CM) was collected. NSC-34 cells (2 days post-passage) were treated with the indicated concentration of (R)-LKE1 for 2.5 hours after which 50% of the medium was replaced with CM. […] After 48 hours, viability of NSC-34 cultures was assessed by tetrazolium reduction assay using a commercially available kit (Promega Aqueous OneStep®).

Assay [4] deals with RAW 264.7 macrophages. Description: LPS-stimulated nitrite production in RAW 264.7 macrophages. It is filed as cell-based. As to conditions: 24-48 h. How it is done:
as §1

Assay [5] relates to C6 glioma cells. Briefly: C6 glioma cells implanted in rat neocortex. It is filed as in vivo, Sprague-Dawley rats. To be noted: 100 mg/day, 7 days/week from implantation. How it is done: FIG. 16. […] 100,000 C6 glioma cells were implanted in the neocortex of adult male Sprague-Dawley rats. The test group was administered (R)-LKE1 in saline 100 mg/day at each of 7 days/week starting the day of implantation.

The subject of assay [6] is SHSY5Y dopaminergic neuroblastoma cells. Description: rotenone toxicity in SHSY5Y cells. The format is cell-based. As to conditions: 30 min pretreatment. How it is done:
FIG. 15. (R)-LKE1 protects SHSY5Y dopaminergic neuroblastoma cells against rotenone toxicity. In this experiment SHSY5Y cultures were treated with (R)-LKE1 for 30 min. prior to addition of rotenone, then assayed for viability at various later time points. The percent change in 24 hour cell viability was measured in the presence and absence of (R)-LKE1 at difference rotenone concentrations. “LKE” refers to (R)-LKE1.
For example, the methods and compounds of present invention are expected to by useful for treating Parkinson's disease in an individual. […] In this experiment SHSY5Y cultures were treated with (R)-LKE1 for 30 min. prior to addition of rotenone, then assayed for viability at various later time points.

`CCOC(=O)[C@@H]1CSCC(C(=O)O)=N1` [(R)-LKE1]: the “potency at suppressing cytokine activation relative to unesterified lanthionine ketimine” value in assay [1] (FIG. 1A) is “statistically significantly more potent”. The “inhibition of nitrite production” value in assay [1] (TNFα-stimulated EOC-20 microglia) is given as “inhibited nitrite production”. Moreover, in assay [2], the “NO2- produced in response to LPS” value is recorded as “reduce the amount of NO2^− produced”. The EC50 in assay [3] (Mus musculus, NSC-34, cytokine-conditioned EOC-20 medium, read-out: concentration necessary to achieve half-maximal protective efficacy) is less than 1000 nM. In assay [3] (co-treatment with conditioned medium), the “mitigation of conditioned-medium toxicity” value is on record as “largely, but not completely mitigated”. In addition, the “inhibition of LPS-stimulated nitric oxide production” value in assay [4] is given as “inhibited LPS stimulated nitric oxide production”. Further, the tumor cell proliferation entry in assay [5] was “inhibits tumor cell proliferation”. Further, the “protection from rotenone toxicity” value in assay [6] is recorded as “protecting SHSY5Y cells from rotenone toxicity”.
